Measured values from patent publication US5763492A, “Methods for effecting memory enhancement mediated by non-steroidal sulfatase inhibitors” (Duguesne University of the Holy Ghost, priority 1996, dated 1998).
Where “and” joins values, the source holds several entries; their conditions need not be identical. Identical values can stand only once. Counter-ions that a name gives are not always drawn.

Key:
Format in all cases: in vivo, rat
[1] = system: scopolamine-induced amnesia in rats; test: Passive avoidance test (Gemini Avoidance System), crossover latency, scopolamine-induced amnesia
liver sulfatase = test: Liver sulfatase activity after IP dosing of rats; conditions: for % Inhibition of liver sulfatase / Liver Sulfatase Activity: 30 mg/kg IP; for Liver Sulfatase Activity: mean ± SEM, P<0.01 vs control, corn oil control 164.10 ± 2.5
Method: (§1) DU-14 was tested for its sulfatase inhibition in rats. 30 mg/kg of the compound was administered to rats IP for 15 days. Sulfatase inhibition was measured by the sulfatase activity in ng E1 S/μg protein/hr in the liver and brain as determined by methods known in the art. The results are presented below in Tables 1 and 2.

brain sulfatase = test: Brain sulfatase activity after IP dosing of rats; conditions: 30 mg/kg IP; for Brain Sulfatase Activity: mean ± SEM, P<0.01 vs control, corn oil control 3.24 ± 0.32
Method: as §1

Structure (SMILES) | maximum crossover latency ([1]; DHEAS 20 mg/Kg IP one hour before acquisition trial, scopolamine 1 mg/Kg IP 30 minutes before) | reversal of scopolamine-induced amnesia ([1]; DHEAS 5-70 mg/kg IP one hour before acquisition trial, bell shaped dose response curve) | % Inhibition of liver sulfatase (liver sulfatase; 1 Day) | Liver Sulfatase Activity (liver sulfatase; 1 Day) | % Inhibition of liver sulfatase (liver sulfatase; 15 Days, 30 mg/kg) | Liver Sulfatase Activity (liver sulfatase; 15 Days) | liver sulfatase after only 1 day (liver sulfatase; 1 day, from about 164) | crossover latency ([1]; DU-14 alone 30 mg/Kg IP daily for 15 days before acquisition trial, scopolamine) | reversal of scopolamine-induced amnesia ([1]; DU-14 alone daily for 15 days, 30 mg/Kg IP) | crossover latency ([1]; DU-14 alone, single dose 30 mg/Kg IP four hours before acquisition trial) | crossover latency, overall conclusion ([1]; summary of Example III) | % Inhibition of brain sulfatase (brain sulfatase; 1 Day) | Brain Sulfatase Activity (brain sulfatase; 1 Day) | Brain Sulfatase Activity (brain sulfatase; 15 Days)
C[C@]12CC[C@H](OS(=O)(=O)O)CC1=CC[C@@H]1[C@@H]2CC[C@]2(C)C(=O)CC[C@@H]12 [DHEAS, dehydroepiandrosterone sulfate, reference compound] | 262.5 ± 84.6 s | significant (p≤0.05), reversal of scopolamine-induced amnesia |  |  |  |  |  |  |  |  |  |  |  | 
CCCCCCCCCCCCCC(=O)NCCc1ccc(OS(N)(=O)=O)cc1 [DU-14] |  |  | 95.2% | 7.85 ± 0.65 ng E1 S/μg protein/hr | 97.6% and ~98% | 4.01 ± 0.23 ng E1 S/μg protein/hr | about 8 | 278.7±88.1 | significant (p≤0.05) reversal of scopolamine-induced amnesia | failed to increase crossover latency | significant increase in crossover latency | 14.8% | 2.76 ± 0.27 pg E1 S/μg protein/hr | 0.48 ± 0.10 pg E1 S/μg protein/hr
